{"source": "patent US20120207704A1", "about": "(priority 2011, published 2012)", "tested_on": "DU-145 cells", "type": "cell-based, human"}
{"smiles": "C=C1[C@@H](C)[C@H]2[C@H](Cc3ccccc3)NC(=O)[C@]23[C@H](OC(C)=O)/C=C/[C@@](C)(O)C(=O)[C@@H](C)C/C=C/[C@H]3[C@@H]1O", "note": "[Cytochalasin-D]", "values": [{"measurement": "Effect on cell migration", "value": "did not migrate"}, {"measurement": "Relative Wound Density at 24 Hours, Mean", "value": "3.3 ± 0.2"}, {"measurement": "Relative Wound Density at 24 Hours, Percent Relative to Media", "value": 4, "unit": "%"}]}
